The values that follow come from ChEMBL document CHEMBL3886965, “Naphthylurea derivatives and medical applications thereof” (2016).

The target in this assay is Platelet-derived growth factor receptor beta (Homo sapiens, UniProt P09619). In words: The rest of the stock solutions was storaged at ⿿20° C. after subpackage.

As a reminder, the IC50 is the concentration needed to halve the response being measured. A high value points to weaker potency.

Platelet-derived growth factor receptor beta, sequence (P09619 whole entry): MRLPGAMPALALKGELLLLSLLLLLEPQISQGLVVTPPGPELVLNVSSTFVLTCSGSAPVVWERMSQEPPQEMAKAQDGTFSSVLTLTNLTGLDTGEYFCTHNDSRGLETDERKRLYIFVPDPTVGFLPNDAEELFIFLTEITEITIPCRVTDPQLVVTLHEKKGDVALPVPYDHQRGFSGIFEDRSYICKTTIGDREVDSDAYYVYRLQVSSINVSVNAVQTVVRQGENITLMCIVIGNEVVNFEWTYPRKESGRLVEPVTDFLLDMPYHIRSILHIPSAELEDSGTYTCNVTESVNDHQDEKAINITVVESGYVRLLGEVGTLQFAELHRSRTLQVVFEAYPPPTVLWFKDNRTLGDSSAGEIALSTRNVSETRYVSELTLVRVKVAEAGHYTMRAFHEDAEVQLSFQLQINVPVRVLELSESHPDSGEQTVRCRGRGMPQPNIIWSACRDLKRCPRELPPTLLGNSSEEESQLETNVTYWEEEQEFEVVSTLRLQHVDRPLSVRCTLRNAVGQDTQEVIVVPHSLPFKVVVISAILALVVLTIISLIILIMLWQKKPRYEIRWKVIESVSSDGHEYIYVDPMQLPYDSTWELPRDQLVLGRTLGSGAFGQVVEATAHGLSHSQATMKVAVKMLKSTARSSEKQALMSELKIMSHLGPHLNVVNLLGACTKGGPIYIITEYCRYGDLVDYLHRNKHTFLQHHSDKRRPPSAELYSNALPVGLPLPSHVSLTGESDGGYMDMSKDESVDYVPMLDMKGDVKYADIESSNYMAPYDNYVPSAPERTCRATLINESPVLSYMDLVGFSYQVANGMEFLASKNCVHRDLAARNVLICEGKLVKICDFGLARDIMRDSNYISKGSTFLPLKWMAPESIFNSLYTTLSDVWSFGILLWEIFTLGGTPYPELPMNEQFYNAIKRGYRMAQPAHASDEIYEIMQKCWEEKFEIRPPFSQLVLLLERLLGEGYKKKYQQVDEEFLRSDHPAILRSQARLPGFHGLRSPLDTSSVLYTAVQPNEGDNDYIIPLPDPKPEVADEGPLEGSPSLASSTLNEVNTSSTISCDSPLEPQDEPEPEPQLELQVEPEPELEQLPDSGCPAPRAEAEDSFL

For `Cc1cccc(NC(=O)Nc2ccc(-c3cncc4[nH]nc(N)c34)c3ccccc23)c1`, half-maximal inhibition (IC50) was put at 6.7 nM. As to `Cc1cccc(NC(=O)Nc2ccc(-c3ccc(OCCC(C)(C)N)c4[nH]nc(N)c34)c3ccccc23)c1`, inhibition was half-maximal at 155 nM (IC50).

In the case of `Cc1cccc(NC(=O)Nc2ccc(-c3ccc(OCCCN4CCCC4)c4[nH]nc(N)c34)c3ccccc23)c1`, the IC50 amounted to 45.4 nM. In turn, `Cc1ccc(F)c(NC(=O)Nc2ccc(-c3ccc(OCCC(C)(C)N)c4[nH]nc(N)c34)c3ccccc23)c1` showed an IC50 of 106 nM. Under `Cc1ccc(F)c(NC(=O)Nc2ccc(-c3cncc4[nH]nc(N)c34)c3ccccc23)c1` stands 25.4 nM; under `Cc1ccc(F)c(NC(=O)Nc2ccc(-c3ccc(OCCCN4CCCC4)c4[nH]nc(N)c34)c3ccccc23)c1`, 16.3 nM.
